Measured values reported in patent publication US20240358692A1, “TREATMENT OF SCLERODERMA” (Aisa Pharma, Inc., priority 2023, published 2024).

Assays:
[1] = system: participants with SSc-RP; test: Average daily Raynaud's Condition Score (RCS); format: in vivo, human; parameters: key to Average Daily RCS, Mean / Average Daily RCS, Median / Average Daily RCS Change from Baseline, Mean / Average Daily RCS Change from Baseline, Median: RCS rated on a 0-10 cm VAS scale; conditions: ITT Population - Part A; for Average Daily RCS, Mean / Average Daily RCS, Median: dosing period
Text: The RCS is based on how much difficulty participants had with Raynaud's today, how many attacks the participant had, and how long they lasted. In addition participants were and will be asked to consider how much pain, numbness, or other symptoms the Raynaud's caused in fingers (including painful sores), and how much the Raynaud's along affected the use of hand today (VAS 0-10 cm scale).
The absolute change in average daily RCS from baseline to the end of each dosing period was and will be a secondary outcome variable. The sponsor-developed participant-informed diary has been and will be used to record data. The average daily RCS is defined as the total RCS divided by the number of days with available diary data of each dosing period. Total RCS during screening period divided by the number of days with available data will be used as baseline for the analysis of all periods. If there are multiple daily RCS scores, the latest daily RCS will be used. The variable will be calculated similar to frequency data as before.

[2] = cilnidipine given orally; cited from earlier work
[3] = Excluding Outliers, dose cilnidipine 10 mg, tadalafil 5 mg, alone or combined as labelled
[4] = Excluding Outliers, dose cilnidipine 20 mg, tadalafil 5 mg, alone or combined as labelled
[5] = Excluding Outliers, pooled arms Cilnidipine 10 mg and Cilnidipine 10 mg + Tadalafil 5 mg
[6] = Excluding Outliers, pooled arms Cilnidipine 20 mg and Cilnidipine 20 mg + Tadalafil 5 mg
[7] = Excluding Outliers, pooled cilnidipine 10 mg and 20 mg arms (combination: + tadalafil 5 mg)
[8] = dose cilnidipine 10 mg, tadalafil 5 mg, alone or combined as labelled
[9] = dose cilnidipine 20 mg, tadalafil 5 mg, alone or combined as labelled
[10] = pooled arms Cilnidipine 10 mg and Cilnidipine 10 mg + Tadalafil 5 mg
[11] = pooled arms Cilnidipine 20 mg and Cilnidipine 20 mg + Tadalafil 5 mg
[12] = pooled cilnidipine 10 mg and 20 mg arms (combination: + tadalafil 5 mg)

SMILES: COCCOC(=O)C1=C(C)NC(C)=C(C(=O)OC/C=C/c2ccccc2)C1c1cccc([N+](=O)[O-])c1 (stereo not shown) [Cilnidipine]
- Average Daily RCS Change from Baseline, Mean [1, 3]: −0.98
- Average Daily RCS Change from Baseline, Median [1, 3]: −0.98
- Average Daily RCS Percent Change from Baseline, Mean [1, 3]: −35.74%
- Average Daily RCS Percent Change from Baseline, Median [1, 3]: −35.74%
- Average Daily RCS Change from Baseline, Mean [1, 4]: −0.45
- Average Daily RCS Change from Baseline, Median [1, 4]: −0.45
- Average Daily RCS Percent Change from Baseline, Mean [1, 4]: −17.16%
- Average Daily RCS Percent Change from Baseline, Median [1, 4]: −17.16%
- Average Daily RCS, Mean [1, 3]: 1.76
- Average Daily RCS, Median [1, 3]: 1.76
- Average Daily RCS, Mean [1, 4]: 2.90
- Average Daily RCS, Median [1, 4]: 2.90
- Average Daily RCS, Mean [1, 5]: 2.43
- Average Daily RCS, Median [1, 5]: 1.76
- Average Daily RCS, Mean [1, 6]: 3.60
- Average Daily RCS, Median [1, 6]: 3.82
- Average Daily RCS, Mean [1, 7]: 2.52
- Average Daily RCS, Median [1, 7]: 1.76
- Average Daily RCS Change from Baseline, Mean [1, 5]: −1.64
- Average Daily RCS Change from Baseline, Median [1, 5]: −1.51
- Average Daily RCS Percent Change from Baseline, Mean [1, 5]: −41.77%
- Average Daily RCS Percent Change from Baseline, Median [1, 5]: −36.47%
- Average Daily RCS Change from Baseline, Mean [1, 6]: −1.08
- Average Daily RCS Change from Baseline, Median [1, 6]: −0.59
- Average Daily RCS Percent Change from Baseline, Mean [1, 6]: −18.93%
- Average Daily RCS Percent Change from Baseline, Median [1, 6]: −20.71%
- Average Daily RCS Change from Baseline, Mean [1, 7]: −0.63
- Average Daily RCS Change from Baseline, Median [1, 7]: −0.98
- Average Daily RCS Percent Change from Baseline, Mean [1, 7]: −23.35%
- Average Daily RCS Percent Change from Baseline, Median [1, 7]: −35.74%
- Average Daily RCS Change from Baseline, Mean [1, 8]: −0.98
- Average Daily RCS Change from Baseline, Median [1, 8]: −0.98
- Average Daily RCS Percent Change from Baseline, Mean [1, 8]: −35.74%
- Average Daily RCS Percent Change from Baseline, Median [1, 8]: −35.74%
- Average Daily RCS Change from Baseline, Mean [1, 9]: −0.45
- Average Daily RCS Change from Baseline, Median [1, 9]: −0.45
- Average Daily RCS Percent Change from Baseline, Mean [1, 9]: −17.16%
- Average Daily RCS Percent Change from Baseline, Median [1, 9]: −17.16%
- Average Daily RCS, Mean [1, 8]: 1.76
- Average Daily RCS, Median [1, 8]: 1.76
- Average Daily RCS, Mean [1, 9]: 2.90
- Average Daily RCS, Median [1, 9]: 2.90
- Average Daily RCS, Mean [1, 10]: 2.43
- Average Daily RCS, Median [1, 10]: 1.76
- Average Daily RCS, Mean [1, 11]: 3.60
- Average Daily RCS, Median [1, 11]: 3.82
- Average Daily RCS, Mean [1, 12]: 2.52
- Average Daily RCS, Median [1, 12]: 1.76
- Average Daily RCS Change from Baseline, Mean [1, 10]: −1.64
- Average Daily RCS Change from Baseline, Median [1, 10]: −1.51
- Average Daily RCS Percent Change from Baseline, Mean [1, 10]: −41.77%
- Average Daily RCS Percent Change from Baseline, Median [1, 10]: −36.47%
- Average Daily RCS Change from Baseline, Mean [1, 11]: −1.08
- Average Daily RCS Change from Baseline, Median [1, 11]: −0.59
- Average Daily RCS Percent Change from Baseline, Mean [1, 11]: −18.93%
- Average Daily RCS Percent Change from Baseline, Median [1, 11]: −20.71%
- Average Daily RCS Change from Baseline, Mean [1, 12]: −0.63
- Average Daily RCS Change from Baseline, Median [1, 12]: −0.98
- Average Daily RCS Percent Change from Baseline, Mean [1, 12]: −23.35%
- Average Daily RCS Percent Change from Baseline, Median [1, 12]: −35.74%
- protein bound [2]: 98%
